According to patent US9249125B2, “Pyrazole derivatives as p38 MAP inhibitors” (RESPIVERT LIMITED, priority 2012, dated 2016):

Assays:
[1] = target: Syk (Homo sapiens (Human), UniProt P43405); assay: Syk enzyme inhibition (FRET, Z-LYTE); format: biochemical
Procedure, shortened: (§1)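 Z-LYTE FRET kinase assay: enzyme (3000 or 2000 ng/mL stock, respectively) preincubated 2 h at RT with compound (4–0.004 μg/mL stocks), then FRET peptide plus ATP (800 μM stock for c-Src, 60 μM for Syk) added for 1 h. Protease development 1 h; phosphorylation from coumarin/fluorescein emission ratio.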

[2] = system: Poly I:C-induced ICAM-1 expression in BEAS2B cells; assay: Poly I:C-induced ICAM-1 expression in BEAS2B cells; format: cell-based; conditions: Homo sapiens, BEAS-2B, read-out: Poly IC induced ICAM1 in BEAS2B IC50
Procedure, shortened: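 Cell-based ELISA read at 450 nm minus 655 nm, divided by crystal violet OD595 to normalize for cell number, gave ICAM-1 levels. Readout was taken 18 hr after poly I:C (1 μg/mL, Oligofectamine) transfection of human bronchial BEAS2B cells pretreated 2 hr with test compound.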

[3] = system: d-U937 cells; assay: Cell viability: MTT assay; format: cell-based, human; conditions: 1 μg/mL
Procedure, shortened: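 MTT read-out (1 h, absorbance 550 nm) on d-U937 cells after pre-incubation with 1 or 10 μg/mL compound under two regimes: 4 h, 5% FCS, or 24 h, 10% FCS RPMI1640. Values are percent loss of viability relative to vehicle (0.5% DMSO), so increases are reported as negative.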

[4] = target: p38 MAPKα (Homo sapiens (Human), UniProt Q16539); assay: p38 MAPKα enzyme inhibition (FRET, Z-LYTE); format: biochemical
[5] = system: PBMC cells; assay: Cell mitosis assay; format: cell-based, human
Protocol: Peripheral blood mononucleocytes (PBMCs) from healthy subjects are separated from whole blood (Quintiles, London, UK) using a density gradient (Histopaque-1077, Sigma-Aldrich, Poole, UK). The PBMCs (3 million cells per sample) are subsequently treated with 2% PHA (Sigma-Aldrich, Poole, UK) for 48 hr, followed by a 20 hr exposure to varying concentrations of test compounds. At 2 hr before collection, PBMCs are treated with demecolcine (0.1 μg/mL) (Invitrogen, Paisley, UK,) to arrest cells in metaphase. To observe mitotic cells, PBMCs are permeabilised and fixed by adding Intraprep (50 μL) (Beckman Coulter, France), and stained with anti-phospho-histone 3 (0.26 ng/L) (#9701; Cell Signalling, Danvers, Mass.) and propidium iodide (1 mg/mL) (Sigma-Aldrich, Poole, UK,) as previously described (Muehlbauer P. A. and Schuler M. J., Mutation Research, 2003, 537:117-130). Fluorescence is observed using an ATTUNE flow cytometer (Invitrogen, Paisley, UK), gating for lymphocytes.

[6] = target: GSK3α (Homo sapiens (Human), UniProt P49840); assay: GSK 3α enzyme inhibition (FRET, Z-LYTE); format: biochemical
Procedure, shortened: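 Phosphorylation was read as the donor (coumarin) to acceptor (fluorescein) ratio after a 1 hr protease step destroying non-phosphorylated peptide. Before this, compound (4–0.004 μg/mL stocks) sat 2 hr at RT with GSK3α (500 ng/mL stock), followed by 1 hr kinase reaction with 8 μM peptide and 40 μM ATP stocks.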

[7] = target: cSrc (Homo sapiens (Human), UniProt P12931); assay: c-Src enzyme inhibition (FRET, Z-LYTE); format: biochemical
Procedure, shortened: as §1

[8] = system: LPS-induced IL-8 release in d-U937 cells; assay: LPS-induced IL-8 release in d-U937 cells; format: cell-based; conditions: Homo sapiens, dU937, read-out: LPS Induced Release of Cytokine in d-937 Cells IL-8 IC50
Procedure, shortened: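 Human monocytic U937 cells were differentiated to macrophage-type cells with PMA (100 ng/mL) for 48 to 72 hr, pre-treated with test compound for 2 hr, then stimulated 4 hr with E. coli O111:B4 LPS (0.1 μg/mL). Supernatant TNFα and IL-8 were measured by sandwich ELISA; REC50 came from concentration-response curves.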

[9] = system: LPS-induced TNFα release in d-U937 cells; assay: LPS-induced TNFα release in d-U937 cells; format: cell-based; conditions: Homo sapiens, dU937, relative to 10 μg/mL BIRB796, read-out: LPS Induced Release of Cytokine in d-937 Cells TNFα REC50
Procedure, shortened: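 Read-out: TNFα and IL-8 released into supernatant, sandwich ELISA, expressed as inhibition versus vehicle at each dose and fitted to give REC50. Cells were PMA-differentiated U937 (100 ng/mL, 48–72 hr), compound-exposed 2 hr before a 4 hr LPS stimulus (0.1 μg/mL).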

[10] = system: HRV16; assay: HRV16 induced CPE in MRC5 cells; format: cell-based, human rhinovirus; conditions: for HRV induced CPE in MRC5 Cells % Inhibition Observed: screened at concentrations up to 0.32 ng/mL
Protocol: The supernatants are aspirated, and then fresh media added followed by incubation for 4 days. Where appropriate, cells are pre-incubated with compound or DMSO for 2 hr, and the compounds and DMSO added again after washout of the virus.
Supernatants are aspirated and incubated with methylene blue solution (100 μL, 2% formaldehyde, 10% methanol and 0.175% Methylene Blue) for 2 hr at RT. […] The percentage inhibition for each well is calculated. The IC50 value is calculated from the concentration-response curve generated by the serial dilutions of the test compounds.

Chain of p38 MAPKα (Q16539 whole entry): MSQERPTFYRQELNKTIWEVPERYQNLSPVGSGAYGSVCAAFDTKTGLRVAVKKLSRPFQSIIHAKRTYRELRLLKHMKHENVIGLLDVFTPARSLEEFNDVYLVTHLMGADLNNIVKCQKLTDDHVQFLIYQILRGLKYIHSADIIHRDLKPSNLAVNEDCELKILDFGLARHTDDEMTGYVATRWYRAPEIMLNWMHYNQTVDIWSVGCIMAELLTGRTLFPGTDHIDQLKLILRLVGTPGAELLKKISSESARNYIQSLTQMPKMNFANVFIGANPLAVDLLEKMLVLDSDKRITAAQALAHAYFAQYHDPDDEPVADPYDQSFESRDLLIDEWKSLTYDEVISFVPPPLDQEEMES
Chain of GSK3α (P49840 whole entry): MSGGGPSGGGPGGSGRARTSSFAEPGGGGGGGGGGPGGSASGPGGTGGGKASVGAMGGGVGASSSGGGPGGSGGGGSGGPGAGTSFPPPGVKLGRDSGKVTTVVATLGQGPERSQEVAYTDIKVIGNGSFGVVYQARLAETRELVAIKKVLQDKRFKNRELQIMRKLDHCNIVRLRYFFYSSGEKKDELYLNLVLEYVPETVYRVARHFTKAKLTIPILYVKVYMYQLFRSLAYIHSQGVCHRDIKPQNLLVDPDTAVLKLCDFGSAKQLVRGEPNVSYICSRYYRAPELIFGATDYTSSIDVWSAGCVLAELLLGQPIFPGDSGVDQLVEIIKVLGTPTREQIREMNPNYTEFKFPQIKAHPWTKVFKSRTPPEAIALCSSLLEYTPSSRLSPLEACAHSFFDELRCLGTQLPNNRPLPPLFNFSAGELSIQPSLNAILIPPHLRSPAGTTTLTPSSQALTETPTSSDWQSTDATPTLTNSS
Chain of cSrc (P12931 whole entry, looked up): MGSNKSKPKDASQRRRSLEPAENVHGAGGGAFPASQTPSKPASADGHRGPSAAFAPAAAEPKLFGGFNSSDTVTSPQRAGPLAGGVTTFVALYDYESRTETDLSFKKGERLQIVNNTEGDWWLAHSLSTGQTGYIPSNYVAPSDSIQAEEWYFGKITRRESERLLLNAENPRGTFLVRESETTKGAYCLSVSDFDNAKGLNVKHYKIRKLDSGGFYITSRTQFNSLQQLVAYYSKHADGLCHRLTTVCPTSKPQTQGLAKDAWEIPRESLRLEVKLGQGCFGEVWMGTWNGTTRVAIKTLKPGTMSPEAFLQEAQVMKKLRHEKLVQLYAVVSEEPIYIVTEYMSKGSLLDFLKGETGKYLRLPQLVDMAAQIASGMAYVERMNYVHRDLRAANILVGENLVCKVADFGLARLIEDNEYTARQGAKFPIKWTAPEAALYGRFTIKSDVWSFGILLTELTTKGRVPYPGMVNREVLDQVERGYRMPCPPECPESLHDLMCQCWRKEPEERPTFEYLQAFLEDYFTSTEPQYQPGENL

Structure (SMILES) | IC50 [1] | IC50 [4] | Mitosis Assay % inhibition in PBMC cells at 5 μg/mL [5] | IC50 [6] | IC50 [7] | IC50 [8] | EC50 [9] | IC50 [2] | MTT Assay Cell viability at time point in d-U937 cells 4 h [3] | MTT Assay Cell viability at time point in d-U937 cells 24 h [3] | IC50 ([10]; Human rhinovirus sp., HRV16, MRC5, read-out: HRV induced CPE in MRC5 Cells IC50) | HRV induced CPE in MRC5 Cells % Inhibition Observed [10]
COc1ccc(-n2nc(C(C)C)cc2NC(=O)Nc2ccc(Oc3ccnc(Nc4cc(C)c5[nH]ncc5c4)n3)c3ccccc23)cc1 [Example 9, 1-(3-Isopropyl-1-(4-methoxyphenyl)-1H-pyrazol-5-yl)-3-(4-((2-((7-methyl-1H-indazol-5-yl)amino)pyrimidin-4-yl)oxy)naphthalen-1-yl)urea] | 7 nM | 38 nM | 23.7% | > 15600 nM | 4 nM | 3.9 nM | 1.6 nM | 1.2 nM | −ve (−ve and +ve indicate that the value is below and above respectively, the no significant effect threshold, defined as 30% inhibition at 1 μg/mL at the time point indicated.) | −ve (−ve and +ve indicate that the value is below and above respectively, the no significant effect threshold, defined as 30% inhibition at 1 μg/mL at the time point indicated.) | – | –
Cc1ccc(-n2nc(C(C)(C)C)cc2NC(=O)Nc2ccc(Oc3ccnc(Nc4ccc5[nH]nnc5c4)n3)c3ccccc23)cc1 [Example 36, 1-(4-((2-((1H-benzo[d][1,2,3]triazol-5-yl)amino)pyrimidin-4-yl)oxy)naphthalen-1-yl)-3-(3-(tert-butyl)-1-(p-tolyl)-1H-pyrazol-5-yl)urea] | 75 nM | 92 nM | 41.2% | 2100 nM | 14 nM | 2.3 nM | 17.2 nM | 6.3 nM | −ve (−ve and +ve indicate that the value is below and above respectively, the no significant effect threshold, defined as 30% inhibition at 1 μg/mL at the time point indicated.) | −ve (−ve and +ve indicate that the value is below and above respectively, the no significant effect threshold, defined as 30% inhibition at 1 μg/mL at the time point indicated.) | – | –
Cc1ccc(-n2nc(C(C)(C)C)cc2NC(=O)Nc2ccc(Oc3ccnc(Nc4ccc5c(c4)NC(=O)C5)n3)c3ccccc23)cc1 [Example 2, 1-(3-(tert-Butyl)-1-(p-tolyl)-1H-pyrazol-5-yl)-3-(4-((2-((2-oxoindolin-6-yl)amino)pyrimidin-4-yl)oxy)naphthalen-1-yl)urea] | 18 nM | 93 nM | – | > 15600 nM | 4 nM | 1.7 nM | 1.4 nM | 1.4 nM | −ve (−ve and +ve indicate that the value is below and above respectively, the no significant effect threshold, defined as 30% inhibition at 1 μg/mL at the time point indicated.) | −ve (−ve and +ve indicate that the value is below and above respectively, the no significant effect threshold, defined as 30% inhibition at 1 μg/mL at the time point indicated.) | – | 89%

The next lines start with results.

IC50 [1] | IC50 [4] | Mitosis Assay % inhibition in PBMC cells at 5 μg/mL [5] | IC50 [6] | IC50 [7] | IC50 [8] | EC50 [9] | Structure (SMILES) | IC50 [2] | MTT Assay Cell viability at time point in d-U937 cells 4 h [3] | MTT Assay Cell viability at time point in d-U937 cells 24 h [3] | IC50 ([10]; Human rhinovirus sp., HRV16, MRC5, read-out: HRV induced CPE in MRC5 Cells IC50) | HRV induced CPE in MRC5 Cells % Inhibition Observed [10]
9 nM | 11 nM | – | 1980 nM | 7 nM | 24.8 nM | 8.7 nM | CC(C)(C)c1cc(NC(=O)Nc2ccc(Oc3ccnc(Nc4ccc5[nH]ncc5c4)n3)c3ccccc23)n(-c2cccc(OCCN3CCOCC3)c2)n1 [Example 54, 1-(4-((2-((1H-indazol-5-yl)amino)pyrimidin-4-yl)oxy)naphthalen-1-yl)-3-(3-(tert-butyl)-1-(3-(2-morpholinoethoxy)phenyl)-1H-pyrazol-5-yl)urea] | 10.3 nM | −ve (−ve and +ve indicate that the value is below and above respectively, the no significant effect threshold, defined as 30% inhibition at 1 μg/mL at the time point indicated.) | −ve (−ve and +ve indicate that the value is below and above respectively, the no significant effect threshold, defined as 30% inhibition at 1 μg/mL at the time point indicated.) | 0.4 nM | –
7 nM | 22 nM | – | 1420 nM | < 1 nM | 1.6 nM | 1.6 nM | CC(C)(C)c1cc(NC(=O)Nc2ccc(Oc3ccnc(Nc4ccc5[nH]ncc5c4)n3)c3ccccc23)n(-c2ccc(OCCN3CCOCC3)nc2)n1 [Example 15, 1-(4-((2-((1H-Indazol-5-yl)amino)pyrimidin-4-yl)oxy)naphthalen-1-yl)-3-(3-(tert-butyl)-1-(6-(2-morpholinoethoxy)pyridin-3-yl)-1H-pyrazol-5-yl)urea] | 2.1 nM | −ve (−ve and +ve indicate that the value is below and above respectively, the no significant effect threshold, defined as 30% inhibition at 1 μg/mL at the time point indicated.) | −ve (−ve and +ve indicate that the value is below and above respectively, the no significant effect threshold, defined as 30% inhibition at 1 μg/mL at the time point indicated.) | – | 56%
14 nM | 33 nM | 62.4% | 3250 nM | 13 nM | 2.7 nM | 2.5 nM | CC(C)(C)c1cc(NC(=O)Nc2ccc(Oc3cc(Nc4ccc5[nH]ncc5c4)ncn3)c3ccccc23)n(-c2ccc(OCCN3CCOCC3)cc2)n1 [Example 70, 1-(4-((6-((1H-indazol-5-yl)amino)pyrimidin-4-yl)oxy)naphthalen-1-yl)-3-(3-(tert-butyl)-1-(4-(2-morpholinoethoxy)phenyl)-1H-pyrazol-5-yl)urea] | 4.1 nM | −ve (−ve and +ve indicate that the value is below and above respectively, the no significant effect threshold, defined as 30% inhibition at 1 μg/mL at the time point indicated.) | −ve (−ve and +ve indicate that the value is below and above respectively, the no significant effect threshold, defined as 30% inhibition at 1 μg/mL at the time point indicated.) | – | –
10 nM | 32 nM | – | 2430 nM | 3 nM | 153 nM | 18.8 nM | CC(C)(C)c1cc(NC(=O)Nc2ccc(Oc3ccnc(Nc4ccc5[nH]ncc5c4)n3)c3ccccc23)n(-c2ccc(=O)n(CCN3CCOCC3)c2)n1 [Example 88, 1-(4-((2-((1H-indazol-5-yl)amino)pyrimidin-4-yl)oxy)naphthalen-1-yl)-3-(3-(tert-butyl)-1-(1-(2-morpholinoethyl)-6-oxo-1,6-dihydropyridin-3-yl)-1H-pyrazol-5-yl)urea] | 35.9 nM | −ve (−ve and +ve indicate that the value is below and above respectively, the no significant effect threshold, defined as 30% inhibition at 1 μg/mL at the time point indicated.) | −ve (−ve and +ve indicate that the value is below and above respectively, the no significant effect threshold, defined as 30% inhibition at 1 μg/mL at the time point indicated.) | – | 75%
